Consider 14 compounds from patent US20160046618A1, “Cyclopropyl Fused Thiazin-2-Amine Compounds as Beta-Secretase Inhibitors and Methods of Use” (AMGEN INC., priority 2014, published 2016).

Read-outs that look alike come from different tables or passages of the source. Bounds are passed on as bounds.

One assay addresses Recombinant Cat D (Homo sapiens (Human), UniProt P07339). Put plainly: In vitro enzymatic Cathepsin D (Cat D) FRET assay. It counts as biochemical. The following applies: read-out: IC50 IP (μM) CatD. A digest of the protocol: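 Recombinant Cat D expressed in CHO cells, assayed in 0.05 M citrate pH 3.5 with 5 mM CHAPS and 10% DMSO final. Reaction started with 20 nM FRET peptide substrate, incubated one hour, then stopped by Tris buffer to neutral pH; fluorescence read at ex 500/em 580 nm.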

The target in another assay is human recombinant BACE1 (Homo sapiens (Human), UniProt P56817). The assay is described as follows: In vitro enzymatic BACE1 FRET assay. The class given is biochemical. Particulars: read-out: IC50 IP (μM) BACE1 enzyme. A digest of the protocol:
(§1)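 Reactions were initiated by adding 50 nM of a peptide carrying fluorophore and quencher on opposite sides of the cleavage site and ran for one hour. Tris buffer then brought the pH to neutrality, ending the reaction, and fluorescence was measured (488 nm excitation, 590 nm emission).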

For another assay, the target named is human recombinant BACE2 (Homo sapiens (Human), UniProt Q9Y5Z0). Put plainly: In vitro enzymatic BACE2 FRET assay. It counts as biochemical. The following applies: read-out: IC50 IP (μM) BACE2 enzyme. A digest of the protocol:
as §1

Assay [1] has as its system Aβ40 in conditioned medium of cells stably expressing Amyloid Precursor Protein (APP). Put plainly: In vitro BACE-1 cell-based assay (Aβ40 sandwich ELISA). Particulars: read-out: IC50 IP (μM) BACE1 cell. Summed up:
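Aβ40 in supernatants measured by time-resolved fluorescence sandwich ELISA, with pAb40 as capture and biotin-6E10 as detector antibody, each incubated at 4 °C.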
A general note: An ELISA detects its analyte on a solid surface through an enzyme-linked reagent.

Recombinant Cat D, sequence (P07339 65-412): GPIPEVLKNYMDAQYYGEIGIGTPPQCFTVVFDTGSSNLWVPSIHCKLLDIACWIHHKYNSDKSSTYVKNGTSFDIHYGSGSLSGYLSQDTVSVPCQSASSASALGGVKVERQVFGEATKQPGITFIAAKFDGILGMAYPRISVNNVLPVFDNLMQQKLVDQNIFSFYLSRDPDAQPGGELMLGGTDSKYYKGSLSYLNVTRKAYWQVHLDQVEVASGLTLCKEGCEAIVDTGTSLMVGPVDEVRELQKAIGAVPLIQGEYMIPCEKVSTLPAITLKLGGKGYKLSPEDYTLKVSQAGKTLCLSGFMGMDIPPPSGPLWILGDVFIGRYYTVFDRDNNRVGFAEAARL
human recombinant BACE2, sequence (Q9Y5Z0 63-518): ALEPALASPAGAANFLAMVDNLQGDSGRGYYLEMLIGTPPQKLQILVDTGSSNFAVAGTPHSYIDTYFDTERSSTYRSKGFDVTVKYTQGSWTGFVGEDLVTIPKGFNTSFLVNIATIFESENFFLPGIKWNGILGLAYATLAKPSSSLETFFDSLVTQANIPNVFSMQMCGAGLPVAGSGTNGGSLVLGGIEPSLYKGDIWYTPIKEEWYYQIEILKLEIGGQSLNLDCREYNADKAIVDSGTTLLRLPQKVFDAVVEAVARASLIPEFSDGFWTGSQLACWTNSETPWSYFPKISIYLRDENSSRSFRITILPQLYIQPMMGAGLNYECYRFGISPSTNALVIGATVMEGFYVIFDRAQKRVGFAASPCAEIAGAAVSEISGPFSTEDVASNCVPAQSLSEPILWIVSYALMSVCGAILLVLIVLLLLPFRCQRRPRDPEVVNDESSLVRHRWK
human recombinant BACE1, sequence (P56817 46-501): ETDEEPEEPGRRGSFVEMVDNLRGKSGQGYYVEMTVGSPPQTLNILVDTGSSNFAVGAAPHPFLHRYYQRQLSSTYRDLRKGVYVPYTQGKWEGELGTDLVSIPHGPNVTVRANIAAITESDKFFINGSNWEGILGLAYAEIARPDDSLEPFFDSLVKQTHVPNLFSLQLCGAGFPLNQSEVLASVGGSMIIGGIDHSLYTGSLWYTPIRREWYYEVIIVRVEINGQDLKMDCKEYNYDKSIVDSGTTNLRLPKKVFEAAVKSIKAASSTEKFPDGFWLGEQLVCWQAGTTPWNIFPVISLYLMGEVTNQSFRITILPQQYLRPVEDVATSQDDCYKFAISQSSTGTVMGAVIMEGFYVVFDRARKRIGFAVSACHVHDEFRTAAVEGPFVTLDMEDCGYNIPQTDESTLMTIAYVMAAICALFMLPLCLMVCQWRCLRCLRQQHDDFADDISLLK

Regarding `COC[C@]12C[C@H]1[C@@](C)(c1cc(NC(=O)c3ncc(OCC(F)(F)F)cc3C)ccc1F)N=C(N)S2` [Example 681, N-(3-((1S,5S,6S)-3-amino-1-(methoxymethyl)-5-methyl-2-thia-4-azabicyclo[4.1.0]hept-3-en-5-yl)-4-fluorophenyl)-3-methyl-5-(2,2,2-trifluoroethoxy)-2-pyridinecarboxamide], the IC50 (commonly the concentration that gives 50% inhibition) is 1450 µM on Recombinant Cat D, 0.0109 µM at human recombinant BACE1, 0.789 µM on human recombinant BACE2 and 0.0555 µM in assay [1].
Consider `NC1=N[C@](CF)(c2cc(Nc3nncc4cc(Br)cnc34)ccc2F)C2C[C@@H]2S1` (stereo in doubt) [Example 67, N-(3-((1S,5S,6S)-3-amino-5-(fluoromethyl)-2-thia-4-azabicyclo[4.1.0]hept-3-en-5-yl)-4-fluorophenyl)-3-bromopyrido[2,3-d]pyridazin-8-amine], for which the concentration for half-maximal inhibition (IC50) came out at 738 µM at Recombinant Cat D (Cathepsin D FRET enzyme assay), 0.0137 µM on human recombinant BACE1 (BACE1 FRET enzyme assay), 0.00616 µM at human recombinant BACE2 (BACE2 FRET enzyme assay) and 0.0208 µM in assay [1] (BACE1 cell-based assay).
`C#CCOc1cnc2c(Nc3cnc(F)c([C@@]4(C)N=C(N)S[C@@]5([C@H](O)C(F)(F)F)C[C@H]54)c3)nccc2n1` [Example 659, (1R)-1-((1S,5S,6S)-3-amino-5-(2-fluoro-5-((2-(2-propyn-1-yloxy)pyrido[3,4-b]pyrazin-5-yl)amino)-3-pyridinyl)-5-methyl-2-thia-4-azabicyclo[4.1.0]hept-3-en-1-yl)-2,2,2-trifluoroethanol]: the IC50 at Recombinant Cat D turned out to be 462 µM; at human recombinant BACE1, 0.000774 µM; on human recombinant BACE2, 0.00425 µM; in assay [1], 0.0013 µM.
In the case of `Cc1noc(COc2cnc3c(Nc4cc(F)c(F)c([C@@]5(C)N=C(N)S[C@@]6(C(F)F)C[C@@H]56)c4)nccc3n2)n1` [Example 887, N-(3-((1S,5S,6S)-3-amino-1-(difluoromethyl)-5-methyl-2-thia-4-azabicyclo[4.1.0]hept-3-en-5-yl)-4,5-difluorophenyl)-2-((3-methyl-1,2,4-oxadiazol-5-yl)methoxy)pyrido[3,4-b]pyrazin-5-amine], the half-maximal inhibitory concentration (IC50) on Recombinant Cat D was greater than 400 µM; at human recombinant BACE1, 0.00295 µM; on human recombinant BACE2, 0.317 µM; in assay [1], 0.0442 µM.
Regarding `CC(=O)[C@]12C[C@H]1[C@@](C)(c1cc(Nc3ncnc4cc(Cl)cnc34)cc(F)c1F)N=C(N)S2` [Example 902, 1-((1S,5S,6S)-3-amino-5-(5-((7-chloropyrido[3,2-d]pyrimidin-4-yl)amino)-2,3-difluorophenyl)-5-methyl-2-thia-4-azabicyclo[4.1.0]hept-3-en-1-yl)ethanone], the IC50 was determined as 479 µM at Recombinant Cat D, 0.0148 µM at human recombinant BACE1, 0.0125 µM at human recombinant BACE2 and 0.0796 µM in assay [1].
The like results for `C#CCOc1cnc2c(Nc3cc(F)c(F)c([C@@]4(C)N=C(N)S[C@@]5(C(=O)N(C)C)C[C@H]54)c3)nccc2n1` [Example 912, (1S,5S,6S)-3-amino-5-(2,3-difluoro-5-((2-(2-propyn-1-yloxy)pyrido[3,4-b]pyrazin-5-yl)amino)phenyl)-N,N,5-trimethyl-2-thia-4-azabicyclo[4.1.0]hept-3-ene-1-carboxamide] were, in that order, greater than 400 µM, 0.000467 µM, 0.00101 µM and 0.000795 µM.
Turning to `COC[C@]12C[C@H]1[C@@](C)(c1cc(NC(=O)c3cnc(OCC(C)(F)F)cn3)cc(F)c1F)N=C(N)S2` [Example 739, N-(3-((1S,5S,6S)-3-amino-1-(methoxymethyl)-5-methyl-2-thia-4-azabicyclo[4.1.0]hept-3-en-5-yl)-4,5-difluorophenyl)-5-(2,2-difluoropropoxy)-2-pyrazinecarboxamide], the IC50 at Recombinant Cat D was 1460 µM; on human recombinant BACE1 it was 0.00421 µM; on human recombinant BACE2, 0.158 µM; in assay [1], 0.0169 µM.
The like results for `C#CCOc1cnc2c(Nc3cnc(F)c([C@@]4(C)N=C(N)S[C@@]5(CF)C[C@H]54)c3)nccc2n1` [Example 601, N-(5-((1S,5S,6S)-3-amino-1-(fluoromethyl)-5-methyl-2-thia-4-azabicyclo[4.1.0]hept-3-en-5-yl)-6-fluoro-3-pyridinyl)-2-(2-propyn-1-yloxy)pyrido[3,4-b]pyrazin-5-amine] were, in that order, 1680 µM, 0.000589 µM, 0.0361 µM and 0.00235 µM.
In the case of `C#C[C@@H](C)Oc1cnc(C(=O)Nc2ccc(F)c([C@@]3(C)N=C(N)S[C@@]4(COC)C[C@H]43)c2)cn1` [Example 988], the IC50 was greater than 400 µM on Recombinant Cat D, 0.0216 µM at human recombinant BACE1, 0.336 µM at human recombinant BACE2 and 0.0532 µM in assay [1].
Regarding `C#CCOc1cnc2c(Nc3cnc(F)c([C@@]4(C)N=C(N)S[C@@]5([C@H](OC)C(F)(F)F)C[C@H]54)c3)nccc2n1` [Example 676, N-(5-((1S,5S,6S)-3-amino-5-methyl-1-((1R)-2,2,2-trifluoro-1-methoxyethyl)-2-thia-4-azabicyclo[4.1.0]hept-3-en-5-yl)-6-fluoro-3-pyridinyl)-2-(2-propyn-1-yloxy)pyrido[3,4-b]pyrazin-5-amine], the IC50 on Recombinant Cat D is 337 µM; on human recombinant BACE1 it was 0.00155 µM; at human recombinant BACE2, 0.0157 µM; in assay [1], 0.0033 µM.
On the same counts, the results for `C#CCOc1cnc2c(Nc3ccc(F)c([C@@]4(CF)N=C(N)S[C@@]5(/C=C/C(=O)N(C)C)C[C@H]54)c3)nccc2n1` [Example 768, (2E)-3-((1R,5S,6S)-3-amino-5-(fluoromethyl)-5-(2-fluoro-5-((2-(2-propyn-1-yloxy)pyrido[3,4-b]pyrazin-5-yl)amino)phenyl)-2-thia-4-azabicyclo[4.1.0]hept-3-en-1-yl)-N,N-dimethyl-2-propenamide] are 406 µM, 0.00119 µM, 0.00612 µM and 0.00113 µM.
For `Cc1cc(OC(F)F)cnc1C(=O)Nc1cc(F)c(F)c([C@@]2(CF)N=C(N)S[C@H]3C[C@H]32)c1` [Example 86, N-(3-((1S,5S,6S)-3-amino-5-(fluoromethyl)-2-thia-4-azabicyclo[4.1.0]hept-3-en-5-yl)-4,5-difluorophenyl)-5-(difluoromethoxy)-3-methyl-2-pyridinecarboxamide], the IC50 at Recombinant Cat D (Cathepsin D FRET enzyme assay) stood at 715 µM; on human recombinant BACE1 (BACE1 FRET enzyme assay), 0.00763 µM; at human recombinant BACE2 (BACE2 FRET enzyme assay) it was 0.0206 µM; in assay [1] (BACE1 cell-based assay), 0.0501 µM.
Take `C#C[C@H](C)Oc1cnc(C(=O)Nc2cc(F)c(F)c([C@@]3(C)N=C(N)S[C@@]4(C(F)F)C[C@@H]34)c2)c(C)c1` [Example 647, N-(3-((1S,5S,6S)-3-amino-1-(difluoromethyl)-5-methyl-2-thia-4-azabicyclo[4.1.0]hept-3-en-5-yl)-4,5-difluorophenyl)-3-methyl-5-(((1S)-1-methyl-2-propyn-1-yl)oxy)-2-pyridinecarboxamide]: the IC50 at Recombinant Cat D amounted to 389 µM; at human recombinant BACE1, 0.0236 µM; on human recombinant BACE2 it was 0.342 µM; in assay [1], 0.259 µM.
The like results for `CN(C)C(=O)[C@]12C[C@H]1[C@@](C)(c1cc(Nc3ncnc4cc(OCc5ncco5)cnc34)cc(F)c1F)N=C(N)S2` [Example 923, (1S,5S,6S)-3-amino-5-(2,3-difluoro-5-((7-(1,3-oxazol-2-ylmethoxy)pyrido[3,2-d]pyrimidin-4-yl)amino)phenyl)-N,N,5-trimethyl-2-thia-4-azabicyclo[4.1.0]hept-3-ene-1-carboxamide] were, in that order, 121 µM, 0.000863 µM, 0.00253 µM and 0.000338 µM.
